# Data as given in the supplement of paper PMC10307832.
# How the values were obtained:
# Test in all cases: relative viability (nuclei count vs DMSO), 5 days (fraction); higher = more cells survive
# [1] = compound: C1CC2=C(C1)C=C(C=C2)OC3=NC(=C4C(=N3)N(C=N4)CC5=CC=C(C=C5)C6=CC=CC=C6)N[C@@H](CC7=CC=CC=C7)CO [QS11] + Cc1nc(NC(=O)N2CCC[C@H]2C(N)=O)sc1-c1ccnc(C(C)(C)C(F)(F)F)c1 [Alpelisib] (partner 2 µM)
# How it was run: (§1)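 Dosing by pin tool came one day after lung cancer cell lines were seeded in 1536-well plates, using either one drug or a fixed anchor-drug dose plus five library-drug doses (not always all listed) in √10 steps. After 5 days, nuclei were counted on 4× images. Relative viability is treated-well nuclei count divided by vehicle-well nuclei count, and values are medians of duplicate plates.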
# [2] = compound: C1CC2=C(C1)C=C(C=C2)OC3=NC(=C4C(=N3)N(C=N4)CC5=CC=C(C=C5)C6=CC=CC=C6)N[C@@H](CC7=CC=CC=C7)CO [QS11] + O=C(c1cc(Cc2n[nH]c(=O)c3ccccc23)ccc1F)N1CCN(C(=O)C2CC2)CC1 [Olaparib] (partner 8 µM)
# How it was run: as §1
# [3] = compound: CC1=C(C=C(C=C1)NC(=O)C2=CC(=CC=C2)C(C)(C)C#N)NC3=CC4=C(C=C3)N=CN(C4=O)C [AZ628] + CC(=O)Nc1cccc(-n2c(=O)n(C3CC3)c(=O)c3c(Nc4ccc(I)cc4F)n(C)c(=O)c(C)c32)c1 [Trametinib] (partner 0.02 µM)
# How it was run: as §1
# [4] = compound: CC1=C(C=C(C=C1)NC(=O)C2=CC(=CC=C2)C(C)(C)C#N)NC3=CC4=C(C=C3)N=CN(C4=O)C [AZ628] + CS(=O)(=O)CCNCc1ccc(-c2ccc3ncnc(Nc4ccc(OCc5cccc(F)c5)c(Cl)c4)c3c2)o1 [Lapatinib] (partner 2 µM)
# How it was run: as §1
Cell Line,relative viability ([1]; first compound 0.08 µM),relative viability ([1]; first compound 0.253 µM),relative viability ([1]; first compound 0.8 µM),relative viability ([1]; first compound 2.53 µM),relative viability ([1]; first compound 8 µM),relative viability ([2]; first compound 0.08 µM),relative viability ([2]; first compound 0.253 µM),relative viability ([2]; first compound 0.8 µM),relative viability ([2]; first compound 2.53 µM),relative viability ([2]; first compound 8 µM),relative viability ([3]; first compound 0.08 µM),relative viability ([3]; first compound 2.53 µM),relative viability ([3]; first compound 8 µM),relative viability ([4]; first compound 0.08 µM),relative viability ([4]; first compound 0.253 µM),relative viability ([4]; first compound 0.8 µM),relative viability ([4]; first compound 2.53 µM),relative viability ([4]; first compound 8 µM),relative viability ([3]; first compound 0.253 µM),relative viability ([3]; first compound 0.8 µM)
NCI-H727,0.509,0.99,0.593,0.54,0.325,0.653,0.661,0.654,0.589,0.753,0.338,0.385,0.357,0.484,0.472,0.415,0.326,0.296,–,–
NCI-H838,1.1,0.954,0.755,0.919,0.884,0.873,0.743,0.582,0.718,0.709,0.491,0.477,0.556,1.05,0.992,0.572,0.956,1.04,0.466,0.486
NCI-H1355,0.776,0.748,0.779,0.689,0.763,0.624,0.732,0.693,0.678,0.75,0.384,0.292,0.286,0.974,0.934,0.947,0.944,0.862,0.303,0.28
NCI-H1395,–,1.2,1.12,0.912,1.53,0.464,0.463,0.446,0.468,0.472,0.954,0.732,0.776,1.04,1,0.942,0.933,0.916,0.739,0.794
NCI-H1437,1.1,1.13,0.834,0.9,0.879,0.661,0.635,0.673,0.625,0.541,0.494,0.557,0.566,0.858,0.735,0.738,0.94,0.97,0.549,0.471
NCI-H1651,1.06,1.1,0.822,0.896,0.713,0.168,0.202,0.171,0.195,0.162,0.848,0.826,0.77,0.985,0.86,0.865,0.753,1.11,0.83,0.858
NCI-H1666,0.917,1.03,0.708,0.587,0.382,0.78,0.75,0.697,0.693,0.516,0.758,0.6,0.777,0.759,0.58,0.521,0.477,0.539,0.697,0.841
NCI-H1734,0.681,0.719,0.697,0.581,0.65,0.625,0.649,0.608,0.587,0.507,0.42,0.344,0.301,1.08,1.07,0.896,0.908,0.699,0.386,0.313
NCI-H1755,1.07,0.947,0.632,0.835,0.857,0.856,0.876,0.665,0.767,0.648,0.63,0.561,0.305,0.99,0.951,0.96,1.04,1.02,0.604,0.483
NCI-H1792,–,0.708,0.539,0.609,0.785,–,0.442,0.459,0.519,0.394,0.333,0.195,0.052,0.995,0.891,0.653,0.793,0.566,0.247,0.117
NCI-H1793,0.719,0.645,0.637,0.827,0.791,0.979,0.837,0.827,0.847,1.06,0.388,0.198,0.206,0.927,0.627,0.573,0.665,0.579,0.332,0.282
NCI-H1915,1.06,1.16,–,1.06,0.999,0.227,0.25,–,0.259,0.275,0.139,0.144,0.0954,1.05,1,0.83,0.653,0.704,0.128,0.109
NCI-H1944,0.794,0.896,–,0.826,0.846,0.395,0.482,–,0.397,0.394,0.321,0.295,0.33,0.855,0.892,0.831,0.747,0.701,0.305,0.254
NCI-H1975,0.654,0.727,0.747,0.887,0.9,0.814,0.891,0.814,1.07,0.688,0.331,0.259,0.288,0.866,0.723,0.85,0.921,0.513,0.272,0.228
NCI-H1993,0.559,0.643,0.693,0.699,0.668,1.06,1.01,1.22,1.35,1.05,0.456,0.535,0.667,0.883,0.78,0.766,0.834,0.838,0.516,0.479
NCI-H2009,1.18,1.19,1.12,0.969,0.999,0.596,0.816,0.679,0.613,0.49,0.208,0.179,0.194,0.548,0.799,0.469,0.715,0.294,0.177,0.198

Cell Line,relative viability ([1]; first compound 0.08 µM),relative viability ([1]; first compound 0.253 µM),relative viability ([1]; first compound 0.8 µM),relative viability ([1]; first compound 2.53 µM),relative viability ([1]; first compound 8 µM),relative viability ([2]; first compound 0.08 µM),relative viability ([2]; first compound 0.253 µM),relative viability ([2]; first compound 0.8 µM),relative viability ([2]; first compound 2.53 µM),relative viability ([2]; first compound 8 µM),relative viability ([3]; first compound 0.08 µM),relative viability ([3]; first compound 2.53 µM),relative viability ([3]; first compound 8 µM),relative viability ([4]; first compound 0.08 µM),relative viability ([4]; first compound 0.253 µM),relative viability ([4]; first compound 0.8 µM),relative viability ([4]; first compound 2.53 µM),relative viability ([4]; first compound 8 µM),relative viability ([3]; first compound 0.253 µM),relative viability ([3]; first compound 0.8 µM)
NCI-H2023,0.678,0.597,0.619,0.747,0.722,0.414,0.556,0.398,0.514,0.439,0.402,0.237,0.183,0.914,0.859,0.914,0.763,0.689,0.338,0.203
NCI-H2085,0.922,1,1.02,1.06,1.12,0.741,0.846,0.773,0.785,0.976,0.502,0.601,0.481,0.824,0.685,0.795,0.741,0.743,0.479,0.628
NCI-H2087,1.18,1.02,0.95,0.743,0.858,0.743,0.743,0.553,0.623,0.644,0.18,0.152,0.184,0.795,0.799,0.636,0.865,0.41,0.191,0.161
NCI-H2126,0.74,0.794,0.708,0.75,0.731,0.874,0.95,0.8,0.799,0.634,0.559,0.562,0.481,0.758,0.857,0.834,0.752,0.89,0.512,0.498
NCI-H2170,0.785,0.907,0.833,0.791,1.16,0.549,0.632,0.539,0.596,0.722,0.872,0.807,0.583,0.3,0.279,0.248,0.268,0.278,0.897,0.799
NCI-H2228,0.705,0.854,0.762,1.14,1.11,0.586,0.663,0.727,0.648,0.993,0.34,0.129,0.12,1.11,1.13,0.784,0.9,1.17,0.316,0.263
NCI-H2347,1.11,1.06,0.929,0.918,1.21,0.55,0.541,0.544,0.519,0.683,0.233,0.256,0.27,0.8,0.89,0.902,0.836,0.457,0.277,0.261
NCI-H2405,0.709,0.745,0.884,0.998,0.902,0.847,0.803,0.768,0.961,0.83,0.387,0.286,0.313,0.733,0.59,0.487,0.487,0.515,0.319,0.277
NCI-H3122,0.879,1,0.745,1.12,0.839,0.636,0.694,–,0.601,0.637,0.157,0.138,0.132,0.975,0.733,0.733,0.684,0.435,0.143,0.159
PC-3 [JPC-3],1.07,0.998,1.1,1.05,1.03,–,1.17,1.15,1.24,1.22,0.685,0.574,0.386,0.488,0.5,0.52,0.47,0.471,0.579,0.647
PC-14,1.08,0.982,0.911,1.01,1.02,0.253,0.339,0.249,0.272,0.38,0.441,0.178,0.195,0.347,0.365,0.351,0.313,0.343,0.301,0.205
RERF-LC-KJ,0.851,0.779,0.928,0.675,0.852,0.988,0.975,0.885,0.822,0.593,0.762,0.835,0.736,0.825,0.837,0.846,0.839,0.888,0.719,0.824
SK-LU-1,1.14,0.934,0.917,0.774,0.712,0.354,0.442,0.466,0.356,0.452,0.325,0.248,0.248,0.498,0.705,0.755,0.834,0.603,0.323,0.257
SK-MES-1,0.997,0.919,0.918,0.886,0.849,0.672,0.677,0.717,0.75,0.804,0.32,0.262,0.369,0.475,0.501,0.479,0.473,0.437,0.318,0.308
SW 1573,0.844,0.656,0.772,0.741,0.718,0.615,0.489,0.503,0.416,0.463,0.443,0.3,0.329,0.997,0.964,0.283,0.884,0.874,0.346,0.334
UMC-11,0.939,1.15,1.01,1.08,1.02,0.324,0.41,0.268,0.329,0.395,0.713,0.691,0.693,1.05,0.903,0.95,0.9,0.968,0.764,0.734
